{
  "source": "patent US11028084B2",
  "about": "“Selective inhibitors of gentotoxic steress-induced IKK/NF-κB pathways” (Max-Delbrück-Centrum für Molekulare Medizin in der …, priority 2016, dated 2021)",
  "key": {"p65 S536 phosphorylation": {"system": "p65 S536 phosphorylation", "test": "p65 S536 phosphorylation after γ-IR or etoposide, SDS-PAGE/WB, U2OS cells", "format": "cell-based, human", "settings": "γ-IR", "experimental": "(§1) FIG. 3: (A) U2OS cells were pre-treated with increasing concentrations of MW01 in duplicates in a 384 well plate. Then, cells were treated with etoposide, fixed and subjected to IF of p65. Spatial measurement of p65 cytosolic and nuclear localisation was used for calculation of p65 translocation rates. (B) U2OS cells were pre-treated with DMSO, MW01 and irradiated with γ-IR. After 90 min cells were lysed and subjected to SDS-PAGE/WB and EMSA. (C) Cells were pre-treated with different concentrations of MW01 as indicated, treated with γ-IR (C) or etoposide (D) and subjected to WB or EMSA, respectively. LDH in (C) represents the loading control.\nFIG. 14: (A) U2OS cells were pre-treated with different concentrations of olaparib prior to co-treatment with etoposide. Whole cell lysis was performed after 90 min and cleared lysates were used for WB with indicated antibodies. (B) U2OS cells were pre-treated with DMSO, olaparib or the ATM inhibitor Ku55933 and co-treated with etoposide. Cells were harvested after 45 min and subjected to SDS-PAGE/WB. Membranes were stained with the indicated antibodies. The experiment of (B) was performed simultaneously to the experiments of (A) and (E) to control functionality of olaparib in inhibiting PAR chain formation. (C) Densitometrical analyses of (A) and two further independent experiments done as shown in (A). (D) U2OS cells were pre-treated with the substances as indicated prior to irradiation. After 90 min mRNA was isolated, transcribed into cDNA and was used for expression analyses of the indicated genes using quantitative real-time PCR (qRT-PCR). (E) HepG2 cells were pre-treated with the PARP inhibitors olaparib, 3-AB and EB-47 prior to γ-irradiation. […]\nAfter transfer of proteins on PVDF membranes unspecific binding of antibodies was blocked by incubation of membranes in 5% skim milk powder in TBST buffer (or 3% BSA in TBST for phosphorylation-specific antibodies) for 1 h at RT. […] After three times of washing with TBST and once with PBS for 5 min, chemiluminescent photon emission was detected using a CCD camera system (Fusion Solo). […]"}, "[1]": {"system": "NF-κB DNA binding activity", "test": "NF-κB DNA binding activity (EMSA) after γ-IR or etoposide, U2OS cells", "format": "cell-based, human", "experimental": "as §1\nNuclear or whole cell lysates were incubated with a ^32P-labeled NF-κB DNA-[…]\nFor electrophoresis, a current of 26 mA was applied for 2 h. After drying the gel onto a Whatman paper, signals were visualised on an autoradiography film (GE Healthcare) after overnight incubation at −80° C. in a radiography cassette. All work using radioactive substances were done at a monitored work space suitable for radioactive work."}, "[2]": {"system": "IKKγ phosphorylation at S85", "test": "IKKγ S85 phosphorylation after irradiation, WB, MEF cells", "format": "cell-based, mouse", "settings": "MEF (murine)", "experimental": "FIG. 11: (A) HEK293 cells were pre-incubated with DMSO, MW01 or ATM inhibitor KU55933 and irradiated. Lysates were subjected to SDS-PAGE/WB. The specific IKKγ S85 band (lower band) was identified by induction following irradiation and by sensitivity to ATMi and λ-phosphatase (λ-PP) treatment. The asterisk indicates a non-specific band that was neither inducible nor ATMi sensitive. (B) Experiment was done as shown in (A) using MEF cells. (C) HEK293 cells were pre-treated with DMSO or MW01, irradiated and lysed. Lysates were used to immunoprecipitate IKKγ using an IKKγ antibody."}, "HEK293 cells": {"system": "HEK293 cells", "test": "Percentage of viable cells, annexin V / propidium-iodide exclusion, flow cytometry, HEK293 cells", "format": "cell-based, human", "experimental": "(§2) FIG. 16: (A) U2OS cells were pre-treated with DMSO or MW01 and irradiated. Cells were lysed 8 h post γ-IR and were used for western blotting and immunochemical staining. (B) HEK293 cells were pre-treated with DMSO or MW01 and irradiated. After 48 h cells were fixed and stained with crystal violet. Dissolved crystal violet was used for absorbance measurement in a visible light spectrophotometer at a wavelength of 595 nm. (C) HEK293 cells were pre-treated with DMSO or MW01 and irradiated. The percentage of viable cells within the population was calculated by exclusion of annexin V and propidium-iodide positive cells measured by flow cytometry. (D) MEF cells were pre-treated with DMSO or MW01 and irradiated. Cells were used for annexin V staining 24 h and 48 after γ-IR. Percentage of annexin V positive cell population was analysed using a flow cytometer. (E) Experiment done as shown in (D) but with HT1080 cells processed 8 h after irradiation. Statistical significance was calculated using students t-test.\nCells were washed with ice-cold PBS and detached from growing dishes using Trypsin/EDTA solution. Detached cells were centrifuged at 300×g for 5 min. Detection of early apoptotic cells was performed by staining with annexin V-FITC antibody according to manufacturer's instructions (eBioscience Annexin V-FITC Apoptosis detection Kit). […]"}, "MEF cells": {"system": "MEF cells", "test": "Annexin V staining, flow cytometry, MEF cells", "format": "cell-based, mouse", "experimental": "as §2\nCells were washed with ice-cold PBS and detached from growing dishes using Trypsin/EDTA solution. Detached cells were centrifuged at 300×g for 5 min. Detection of early apoptotic cells was performed by staining with annexin V-FITC antibody according to manufacturer's instructions (eBioscience Annexin V-FITC Apoptosis detection Kit). Necroptotic and late apoptotic cells were stained by addition of propidium iodide (final concentration 1 μg/ml) prior to measurements.\nThe sensitising effect of MW01 on cells was tested in MEF cells with a low irradiation dose of 2 Gy, an amount cells are able to repair. Cells were pre-treated with MW01, irradiated and cells were analysed by annexin V staining 24 or 48 h after irradiation. After 24 h, the treatment of cells with MW01 led to an increase of annexin V positive cells of about 10%. […] Comparing the annexin V positive cells of MW01 treated and MW01/γ-IR co-treated samples, a sensitising effect for low γ-irradiation dose-induced apoptosis of about 12% was found (FIG. 16 D)."}, "HT1080 cells": {"system": "HT1080 cells", "test": "Annexin V staining, flow cytometry, HT1080 cells", "format": "cell-based", "settings": "HT1080, 10 Gy", "experimental": "as §2\nCells were washed with ice-cold PBS and detached from growing dishes using Trypsin/EDTA solution. Detached cells were centrifuged at 300×g for 5 min. […]\nIn addition, the sensitising effect of NF-κB inhibition was tested in HT1080 cells. After pre-treatment with DMSO or MW01, cells were irradiated with a dose of 10 Gy and analysed by annexin V staining."}},
  "data": [
    {"compound": "COc1ccc2c(c1OC)c(=O)n1c3ccc(O)cc3c3ccnc2c31", "note": "[MW01, 12-hydroxy-6,7-dimethoxy-8H-benzo[c]indolo[3,2,1-ij][1,5]naphthyridin-8-one]", "values": [
      {"measurement": "p65 S536 phosphorylation following γ-IR", "setting": "p65 S536 phosphorylation", "value": "concentration dependent inhibition of p65 S536 phosphorylation"},
      {"measurement": "etoposide-induced NF-κB DNA binding activity", "setting": "[1]; etoposide", "value": "inhibited by MW01 pre-treatment in a concentration dependent manner"},
      {"measurement": "γ-IR-induced NF-κB DNA binding activity", "setting": "[1]; γ-IR, 90 min, U2OS", "value": "inhibited the γ-IR-induced NF-κB DNA binding activity"},
      {"measurement": "phosphorylation of IKKγ at S85", "setting": "[2]", "value": "abolished"},
      {"measurement": "less viable cells after irradiation", "setting": "HEK293 cells; HEK293, after irradiation", "value": "~17", "unit": "%"},
      {"measurement": "percentage of viable cells compared to the DMSO control", "setting": "HEK293 cells; HEK293, non-irradiated", "value": "slightly reduced"},
      {"measurement": "increase of annexin V positive cells", "setting": "MEF cells; 24 h, without IR", "value": "about 10%"},
      {"measurement": "sensitising effect for low γ-irradiation dose-induced apoptosis", "setting": "MEF cells; MW01 vs MW01/γ-IR co-treated samples", "value": "about 12%"},
      {"measurement": "annexin V staining of cells", "setting": "MEF cells; after 2 Gy of γ-irradiation", "value": "circa 34%"},
      {"measurement": "population of early apoptotic cells", "setting": "HT1080 cells", "value": "roughly doubled"},
      {"measurement": "annexin V staining compared to the irradiated control", "setting": "HT1080 cells; 8 h after irradiation", "value": "significant increase"}
    ]}
  ]
}
